Laboratory results from PubChem BioAssay AID2060506 (Molecular Pharmacology Branch, DTP, NCI, 2025).
Values joined by “and” are separate entries in the source; they are usually repeats but may differ in a detail not shown here. Equal entries are not always repeated.

System: 598228-144-R-J1-PDC complex spheroid viability
Experiment: Anticancer human tumor 598228-144-R-J1-PDC patient-derived serous endometrial adenocarcinoma cell line growth inhibition [GQUAD]
Details: for viability, T/C: stronger effect = lower value; active means viability on the fitted dose curve at most 10% of control; inactive means the rest
Excerpt: DNA G-quadruplex Stabilizer Agents in Combinations in Complex Spheroids
A high-throughput screen of multi-cell type tumor spheroids was designed to identify active combinations of DNA G-quadruplex stabilizer agents and targeted small molecules. Complex spheroids include a stromal component modeled by human endothelial cells (HUVEC) and fibroblasts modeled by human mesenchymal stem cells (MSCs). The concentration ranges selected for each drug and investigational agent were based upon clinically achievable concentrations if the clinical Cmax of the agent was known.
Compounds. The drugs and investigational agents: pidnarulex (CX-5461; NSC782164), APTO-253 (NSC789042), BRACO-19 (NSC847499), peposertib (NSC802822), ceralasertib (NSC780249), elimusertib (NSC800525), camonsertib (NSC841442), AZD-1390 (NSC803789), olaparib (NSC753686), talazoparib (NSC767125), ART-558 (NSC835418), sotorasib (NSC818433), MRTX-1133 (NSC836407), SN-38 (NSC673596), topotecan (NSC609699), etoposide (NSC141540), doxorubicin (NSC123127), gemcitabine (NSC613327), 5-fluorouracil (NSC19893), paclitaxel (NSC125973), vemurafenib (NSC761431), panobinostat (NSC761190), R-306465 (JNJ-16241199; NSC773264), adavosertib (NSC754352), TP-3654 (NSC805149), carboplatin (NSC241240), KSQ-4279 (NSC840948), and staurosporine (NSC755774) were obtained from the National Cancer Institute (NCI) Developmental Therapeutics Program Chemical Repository (34). The FDA-approved anticancer drug set is available from the NCI Developmental Therapeutics Program. […] The stock solutions were prepared in dimethyl sulfoxide (DMSO, Sigma-Aldrich, St. Louis, MO, cat. D2650) at 800-fold the tested concentration and stored at -70 degrees C prior to their use. All drugs and investigational agents were tested over a range starting from a high concentration at or near the clinical Cmax and decreasing in half-log increments. If the clinical Cmax for an agent had not been determined, the highest concentration tested was 10 microM.
2.3 Cell Culture. All cells were maintained in an incubator at 37 degrees C and 5% CO2 with 95% humidity. The PDC lines were cultured according to standard operating procedures established by the NCI PDMR. All PDCs were thawed and cultured in Matrigel-coated flasks prepared with a working solution of 1X Ham's F-12 nutrient mix, without supplementation (Invitrogen, cat. 11765054), 100 U/mL penicillin-streptomycin (Invitrogen, cat. 15140122), and 2.5% Matrigel (Corning Inc., cat. 354248) for the first three passages. The 857933-349-R-J2-PDC line was cultured in 6C/Colon 1B media, which includes advanced DMEM/F-12 (Thermo Fisher Scientific, cat. 12634028), 10 mM HEPES (Thermo Fisher Scientific, cat. 15630080), 1X GlutaMAX supplement (Thermo Fisher Scientific, cat. 35050061), 0.1 mg/mL primocin (InvivoGen, cat. ant-pm-2), 10% defined fetal bovine serum, heat inactivated (HyClone Laboratories Inc., cat. SH30070.03HI), 50% L-WRN conditioned media (ATCC, cat. CRL-3276), 1.25 mM N-Acetyl-L-cysteine (Sigma-Aldrich, cat. A9165), 10 mM nicotinamide (Sigma-Aldrich, cat. N0636), 1X B-27 supplement (Thermo Fisher Scientific, cat. 17504044), 1X N-2 supplement (Thermo Fisher Scientific, cat. 17502048), 10 microM Y-27632 dihydrochloride (Tocris Bioscience, cat. 1254), and 50 ng/mL human EGF recombinant protein (Thermo Fisher Scientific, cat. PHG0311). The 485176-168-R4-J1-PDC line was cultured in Panc media, which includes all 6C/Colon 1B media components plus 100 ng/mL human FGF-10 (Thermo Fisher Scientific, cat. 100-26), 500 nM SB-431542 (Selleckchem, cat. S1067), and gastrin (Tocris, cat. 3006).
[…]
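Further: spheroids exposed to the agents for one week before reading.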
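Wherever viability, T/C is given: percent of vehicle DMSO control viability so 100% = untreated growth.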

O=C(c1cc(Cc2n[nH]c(=O)c3ccccc23)ccc1F)N1CCN(C(=O)C2CC2)CC1
> 10000 nM: IC50 (curve of compound)
inactive: viability, T/C (compound 0.0316 µM) 99.5% and 83.8% and 109% | viability, T/C (compound 0.1 µM) 96.3% and 85.6% and 96.4% | viability, T/C (compound 0.316 µM) 88.2% and 96.8% (2×) | viability, T/C (compound 1 µM) 118% and 79.3% and 98.2% | viability, T/C (compound 3.16 µM) 81% and 79.2% and 90.8% | viability, T/C (compound 10 µM) 74.8% and 64.3% and 66.1%

CCCS(=O)(=O)Nc1ccc(F)c(C(=O)c2c[nH]c3ncc(-c4ccc(Cl)cc4)cc23)c1F
8880 nM and 6560 nM and 7610 nM: IC50 (curve of compound)
inactive: viability, T/C (compound 0.0316 µM) 122% and 103% and 107% | viability, T/C (compound 0.1 µM) 93.3% and 86.4% and 114% | viability, T/C (compound 0.316 µM) 104% and 110% and 102% | viability, T/C (compound 1 µM) 106% and 110% and 130% | viability, T/C (compound 3.16 µM) 100% and 90.5% and 112% | viability, T/C (compound 10 µM) 44.2% and 26.5% and 30.6%

C#Cc1c(F)ccc2cc(O)cc(-c3ncc4c(N5CC6CCC(C5)N6)nc(OCC56CCCN5CC(F)C6)nc4c3F)c12 (stereo not drawn)
> 10000 nM: IC50 (curve of compound)
inactive: viability, T/C (compound 0.0316 µM) 103% and 107% and 96.2% | viability, T/C (compound 0.1 µM) 98.9% and 118% and 97.6% | viability, T/C (compound 0.316 µM) 106% (2×) and 98.1% | viability, T/C (compound 1 µM) 100% and 101% and 92.4% | viability, T/C (compound 3.16 µM) 96.8% and 99.4% and 96.6% | viability, T/C (compound 10 µM) 84.1% and 105% and 83.3%

CCc1c2c(nc3ccc(O)cc13)-c1cc3c(c(=O)n1C2)COC(=O)[C@]3(O)CC + Cc1cnc(CNC(=O)c2c(=O)c3ccc(N4CCCN(C)CC4)nc3n3c2sc2ccccc23)cn1
active: viability, T/C (second compound 0.316 µM, first compound 0.316 µM) 2.76% | viability, T/C (second compound 1 µM, first compound 0.316 µM) 0.43% | viability, T/C (second compound 3.16 µM, first compound 0.0999 µM) 0.43% | viability, T/C (second compound 3.16 µM, first compound 0.316 µM) 0.31% | viability, T/C (second compound 10 µM, first compound 0.0316 µM) 1.02% | viability, T/C (second compound 10 µM, first compound 0.0999 µM) 0.4% | viability, T/C (second compound 10 µM, first compound 0.316 µM) 0.35%
14.9 nM: IC50 (curve of first compound, second compound 0.1 µM)
< 0.999 nM: IC50 (curve of first compound, second compound 10 µM)
22.2 nM: IC50 (curve of first compound, second compound 1 µM)
16.4 nM: IC50 (curve of first compound, second compound 0.316 µM)
18 nM: IC50 (curve of first compound, second compound 0.0316 µM)
inactive: viability, T/C (second compound 0.0316 µM, first compound 0.000999 µM) 62.5% | viability, T/C (second compound 0.0316 µM, first compound 0.00316 µM) 68% | viability, T/C (second compound 0.0316 µM, first compound 0.00999 µM) 55.6% | viability, T/C (second compound 0.0316 µM, first compound 0.0316 µM) 42.6% | viability, T/C (second compound 0.0316 µM, first compound 0.0999 µM) 27.3% | viability, T/C (second compound 0.0316 µM, first compound 0.316 µM) 15.3% | viability, T/C (second compound 0.1 µM, first compound 0.000999 µM) 58.7% | viability, T/C (second compound 0.1 µM, first compound 0.00316 µM) 56.1% | viability, T/C (second compound 0.1 µM, first compound 0.00999 µM) 60.4% | viability, T/C (second compound 0.1 µM, first compound 0.0316 µM) 34.1% | viability, T/C (second compound 0.1 µM, first compound 0.0999 µM) 22.6% | viability, T/C (second compound 0.1 µM, first compound 0.316 µM) 15% | viability, T/C (second compound 0.316 µM, first compound 0.000999 µM) 69.3% | viability, T/C (second compound 0.316 µM, first compound 0.00316 µM) 76.8% | viability, T/C (second compound 0.316 µM, first compound 0.00999 µM) 45.4% | viability, T/C (second compound 0.316 µM, first compound 0.0316 µM) 47.3% | viability, T/C (second compound 0.316 µM, first compound 0.0999 µM) 21.5% | viability, T/C (second compound 1 µM, first compound 0.000999 µM) 68.5% | viability, T/C (second compound 1 µM, first compound 0.00316 µM) 63.5% | viability, T/C (second compound 1 µM, first compound 0.00999 µM) 64.2% | viability, T/C (second compound 1 µM, first compound 0.0316 µM) 43.3% | viability, T/C (second compound 1 µM, first compound 0.0999 µM) 19.6% | viability, T/C (second compound 3.16 µM, first compound 0.000999 µM) 70.3% | viability, T/C (second compound 3.16 µM, first compound 0.00316 µM) 63% | viability, T/C (second compound 3.16 µM, first compound 0.00999 µM) 55.8% | viability, T/C (second compound 3.16 µM, first compound 0.0316 µM) 27.9% | viability, T/C (second compound 10 µM, first compound 0.000999 µM) 54% | viability, T/C (second compound 10 µM, first compound 0.00316 µM) 39.5% | viability, T/C (second compound 10 µM, first compound 0.00999 µM) 44%
12.8 nM: IC50 (curve of first compound, second compound 3.16 µM)
